According to US20090105322A1, “PHARMACEUTICAL COMPOSITION COMPRISING VALSARTAN” (priority 2003, published 2009):

Tests used:
[1] = tested on: rapid pacing induced heart failure; experiment: Rapid pacing induced heart failure model in mini pigs; assay type: in vivo; settings: valsartan in combination with an ACE inhibitor, compared to either ACE inhibition or AT1-receptor blockade alone
From the text: The effect of valsartan alone and in combination with an ACE inhibitor was studied in a model of rapid pacing induced heart failure in mini pigs.

[2] = tested on: systolic and diastolic blood pressure in patients with essential arterial hypertension; experiment: Treatment of patients with essential arterial hypertension; assay type: in vivo, human; settings: 80 mg o.d.; compared with ACE inhibitors and other antihypertensive medications
From the text: Valsartan (CGP 48933) is an orally active, potent and specific competitive Ang II antagonist at the level of the AT1-receptor subtype.

[3] = tested on: cardiac hemodynamics in CHF patients (NYHA Class II-IV); experiment: Protocol 103: chronic central hemodynamic effects in non-ACE inhibitor treated CHF patients; assay type: in vivo, human; settings: 40, 80 and 160 mg b.i.d. for 4 weeks; preliminary trial results
Description: Two Phase II studies (Protocols 103 and 104) have been recently completed. Protocol 103 is a randomized, double-blind, placebo-controlled, parallel group, dose ranging trial to determine the chronic central hemodynamic effects of valsartan 40 mg b.i.d., 80 mg b.i.d., 160 mg b.i.d. and lisinopril 10 mg o.d. administered for 4 weeks to non-ACE inhibitor treated CHF patients (NYHA Class II-IV).

[4] = tested on: AF occurrence in patients with symptomatic HF (EF<40% and dilated ventricle-LVIDD>2.9); experiment: Occurrence of AF from adverse event reports in the Val-HeFT trial; assay type: in vivo, human
Description: The occurrence of AF was evaluated based on adverse event reports in the patients with symptomatic heart failure (ejection fraction<40% and dilated ventricle-left ventricular internal diastolic diameter (LVIDD)>2.9) enrolled in the Val-HeFT trial. The Val-HeFT trial is set forth in Example 2. The occurrence of AF was evaluated based on adverse event reports in the patients with symptomatic HF (EF<40% and dilated ventricle-LVIDD>2.9) enrolled in the Val-HeFT trial (set forth in Example 2). Patients were randomized to valsartan or placebo on top of the prescribed treatments for heart failure. During the 23 months of follow-up of the study, AF was reported in 328/5000 patients (6.6%), 132/2506 (5.27%) in the valsartan allocated patients and 196/2494 (7.86%) in those allocated to placebo (p=0.0002). […] This is a multicountry, randomized, double-blind, forced titration, parallel, placebo-controlled trial. Patients will be stratified according to their use of beta blockers at randomization. At Visit 2, patients who meet the randomization criteria will be stratified according to their use of beta blockers and randomized to receive either valsartan 40 mg b.i.d. or placebo (Level 1). After 2 weeks of treatment (Visit 3), patients will be titrated up to receive either valsartan 80 mg b.i.d. or placebo, respectively (Level 2). The criteria for titration are given below. Following another 2 week treatment period (Visit 4), patients will again be titrated up to receive valsartan 160 mg b.i.d. or placebo, respectively (Level 3). The criteria for titration are given below. Patients not tolerating the highest dose of valsartan will be titrated down to the next lower dose after 2 weeks of treatment (Visit 5).

CCCCC(=O)N(Cc1ccc(-c2ccccc2-c2nnn[nH]2)cc1)[C@H](C(=O)O)C(C)C [valsartan, (S)-N-(1-carboxy-2-methyl-prop-1-yl)-N-pentanoyl-N-[2; (1H-tetrazol-5-yl)biphenyl-4-yl-methyl]amine]
Left ventricular function and geometry, and myocyte inotropic response [1]: further beneficial effects on left ventricular function and geometry, and myocyte inotropic response
Decreases in systolic and diastolic blood pressure [2]: comparable to those achieved by treatment with ACE inhibitors and other antihypertensive medications
Tolerability profile [2]: more favorable tolerability profile
Cardiac hemodynamics versus placebo [3]: clinically relevant and statistically significant improvements in cardiac hemodynamics versus placebo
AF reported (percent of allocated patients) ([4]; 23 months of follow-up, valsartan on top of prescribed heart failure treatments, vs placebo 7.86%, p=0.0002): 5.27%
AF reported (patients with AF / patients allocated) ([4]; 23 months of follow-up, valsartan on top of prescribed heart failure treatments, vs placebo 196/2494): 132/2506
Reduction of the incidence of AF ([4]; valsartan added to prescribed therapy (93% ACE-inhibitors, 35% beta-blockers)): ~35%
RR for AF occurrence (logistic regression analysis) ([4]; valsartan treatment as independent predictor, 95% CI: 0.52-0.82): 0.65
